According to US8901118B2, “Compounds and methods for kinase modulation, and indications therefor” (Plexxikon Inc., priority 2010, dated 2014):

How the values were obtained:
[1] = target: T1, BCR-NTRK2 BaF3 cells (Homo sapiens, UniProt Q16620); assay: BaF3 BCR-NTRK2 cell proliferation assay (ATPlite); format: cell-based; settings: read-out: Inhibition of Cell Proliferation IC50, BCR/BaF3 TrkB
T1 construct: fused on or other part: P11274 (Breakpoint cluster region protein)
How it was run: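 Cells are plated overnight: BaF3 at 10,000/well in G418 medium without WEHI/IL-3, MV-4-11 at 25,000/well in IMDM with 10% FBS. An 8-point 1:3 compound titration (10 μM top) is then added, and plates are incubated 3 days at 37 °C before ATPlite readout and IC50 determination.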

[2] = target: T2, CYP1A2 (Homo sapiens, UniProt P05177); assay: CYP1A2 inhibition (fluorescent substrate CEC); format: in vitro ADME; settings: read-out: Cyp IC50 1A2
T2 sequence (P05177 1-516): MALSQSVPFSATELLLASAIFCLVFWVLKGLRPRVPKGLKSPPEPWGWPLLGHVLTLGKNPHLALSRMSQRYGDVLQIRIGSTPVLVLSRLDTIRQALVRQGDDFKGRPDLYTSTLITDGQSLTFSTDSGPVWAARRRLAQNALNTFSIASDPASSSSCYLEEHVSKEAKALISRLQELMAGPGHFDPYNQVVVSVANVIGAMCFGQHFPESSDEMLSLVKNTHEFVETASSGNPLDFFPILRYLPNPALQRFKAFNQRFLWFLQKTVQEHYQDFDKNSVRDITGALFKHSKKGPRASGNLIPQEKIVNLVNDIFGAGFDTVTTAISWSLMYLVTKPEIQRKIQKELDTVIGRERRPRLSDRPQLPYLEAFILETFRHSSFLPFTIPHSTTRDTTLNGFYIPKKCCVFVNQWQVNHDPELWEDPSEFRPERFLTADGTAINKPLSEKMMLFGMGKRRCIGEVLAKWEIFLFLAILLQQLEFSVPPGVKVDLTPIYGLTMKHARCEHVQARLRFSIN
How it was run: (§1)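 10-pt 1:1 dilution series (from 100 mM DMSO stock) in NADPH regen cofactor mix, 5% MeCN; 10 min preincubation at 37 °C. Enzyme reaction 37 °C: 1A2 15 min, 2C9 45 min, 2C19/2D6 30 min. Fluorescence readout; IC50 fit.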

[3] = target: CYP2C9 (Homo sapiens, UniProt P11712); assay: CYP2C9 inhibition (fluorescent substrate MFC); format: in vitro ADME; settings: read-out: Cyp IC50 2C9
CYP2C9, sequence (P11712 whole entry): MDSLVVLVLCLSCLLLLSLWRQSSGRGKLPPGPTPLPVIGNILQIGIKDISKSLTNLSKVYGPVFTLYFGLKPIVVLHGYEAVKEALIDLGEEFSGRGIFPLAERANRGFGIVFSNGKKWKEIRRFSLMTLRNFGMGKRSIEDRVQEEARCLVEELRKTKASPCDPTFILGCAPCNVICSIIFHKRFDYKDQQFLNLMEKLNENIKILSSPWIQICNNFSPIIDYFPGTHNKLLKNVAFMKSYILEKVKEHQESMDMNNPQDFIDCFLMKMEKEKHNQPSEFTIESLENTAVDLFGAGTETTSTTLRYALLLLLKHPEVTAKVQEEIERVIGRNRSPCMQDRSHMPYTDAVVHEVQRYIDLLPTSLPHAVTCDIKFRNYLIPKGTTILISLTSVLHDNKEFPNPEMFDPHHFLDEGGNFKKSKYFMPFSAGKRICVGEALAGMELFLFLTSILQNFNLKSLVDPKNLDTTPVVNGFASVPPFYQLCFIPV
How it was run: as §1

T1 sequence (Q16620 538-807): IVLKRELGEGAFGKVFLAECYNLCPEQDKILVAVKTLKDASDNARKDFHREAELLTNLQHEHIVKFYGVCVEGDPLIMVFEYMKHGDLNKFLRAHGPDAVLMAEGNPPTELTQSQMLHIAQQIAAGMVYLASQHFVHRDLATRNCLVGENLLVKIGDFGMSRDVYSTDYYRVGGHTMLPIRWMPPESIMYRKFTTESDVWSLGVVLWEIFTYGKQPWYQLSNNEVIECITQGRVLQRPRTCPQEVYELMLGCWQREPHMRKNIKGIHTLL

Which results are given for Clc1cnc2[nH]cc(Cc3cnc(NC4CCCCC4)nc3)c2c1 [Compound P-3001, [5-(5-chloro-1H-pyrrolo[2,3-b]pyridin-3-ylmethyl)-pyrimidin-2-yl]-cyclohexyl-amine]?
IC50 [1]: > 10 µM; IC50 [2]: > 10 µM; IC50 [3]: > 10 µM

FC1(F)CCC(Nc2ncc(Cc3c[nH]c4ncc(Cl)cc34)cn2)CC1 [Compound P-3004] was tested. Which IC50 [1] did it give?
Its IC50 is < 10 µM.

And the IC50 [2]?
Its IC50 is > 10 µM.

And the IC50 [3]?
The IC50 was > 10 µM.

Which IC50 [1] does the source give for Clc1cnc2[nH]cc(Cc3cnc(NC4CC4)nc3)c2c1 [Compound P-3005, [5-(5-Chloro-1H-pyrrolo[2,3-b]pyridin-3-ylmethyl)-pyrimidin-2-yl]-cyclopropyl-amine] here?
The IC50 was > 10 µM.

How did the IC50 [1] turn out when Clc1cnc2[nH]cc(Cc3cnc(NC4CCCCCC4)nc3)c2c1 [Compound P-3006, [5-(5-Chloro-1H-pyrrolo[2,3-b]pyridin-3-ylmethyl)-pyrimidin-2-yl]-cycloheptyl-amine] was run?
Its IC50 is > 10 µM.

What about the IC50 [2] of the same molecule?
The IC50 was > 10 µM.

And the IC50 [3]?
Its IC50 is > 10 µM.

For COc1ccccc1Nc1ncc(Cc2c[nH]c3ncc(Cl)cc23)cn1 [Compound P-3016, [5-(5-Chloro-1H-pyrrolo[2,3-b]pyridin-3-ylmethyl)-pyrimidin-2-yl]-(2-methoxy-phenyl)-amine], which IC50 [1] is on record?
The IC50 was > 10 µM.

With Fc1cccc(Nc2ncc(Cc3c[nH]c4ncc(Cl)cc34)cn2)c1 [Compound P-3017, [5-(5-Chloro-1H-pyrrolo[2,3-b]pyridin-3-ylmethyl)-pyrimidin-2-yl]-(3-fluoro-phenyl)-amine] as the molecule, how does the IC50 [1] read?
Its IC50 is > 10 µM.

What does the source list for Cc1cnc2[nH]cc(Cc3cnc(Nc4ccc(C(F)(F)F)nc4)nc3)c2c1 [Compound P-3018, [5-(5-Methyl-1H-pyrrolo[2,3-b]pyridin-3-ylmethyl)-pyrimidin-2-yl]-(6-trifluoromethyl-pyridin-3-yl)-amine]?
IC50 [1]: < 0.1 µM; IC50 [2]: > 10 µM; IC50 [3]: > 10 µM

With COc1cc(Nc2ncc(Cc3c[nH]c4ncc(C)cc34)cn2)ccc1F [Compound P-3022, (4-Fluoro-3-methoxy-phenyl)-[5-(5-methyl-1H-pyrrolo[2,3-b]pyridin-3-ylmethyl)-pyrimidin-2-yl]-amine] as the molecule, how does the IC50 [1] read?
The IC50 was < 1 µM.

With COc1ccc(Nc2ncc(Cc3c[nH]c4ncc(C)cc34)cn2)cc1F [Compound P-3023, (3-Fluoro-4-methoxy-phenyl)-[5-(5-methyl-1H-pyrrolo[2,3-b]pyridin-3-ylmethyl)-pyrimidin-2-yl]-amine] as the molecule, how does the IC50 [1] read?
The IC50 was < 1 µM.

Which results are given for CCc1ccc(Nc2ccc(Cc3c[nH]c4ncc(C)cc34)c(F)n2)cn1 [Compound P-3048, (6-Ethyl-pyridin-3-yl)-[6-fluoro-5-(5-methyl-1H-pyrrolo[2,3-b]pyridin-3-ylmethyl)-pyridin-2-yl]-amine]?
IC50 [2]: > 10 µM; IC50 [3]: > 10 µM

How did the IC50 [2] turn out when CCc1ccc(Nc2ccc(C(=O)c3c[nH]c4ncc(C)cc34)c(F)n2)cn1 [Compound P-3049, [6-(6-Ethyl-pyridin-3-ylamino)-2-fluoro-pyridin-3-yl]-(5-methyl-1H-pyrrolo[2,3-b]pyridin-3-yl)-methanone] was run?
The IC50 was > 10 µM.

And the IC50 [3]?
Its IC50 is > 10 µM.

Which results are given for Cc1cnc2[nH]cc(Cc3ccc(Nc4ccc(C5CC5)nc4)nc3F)c2c1 [Compound P-3050, (6-Cyclopropyl-pyridin-3-yl)-[6-fluoro-5-(5-methyl-1H-pyrrolo[2,3-b]pyridin-3-ylmethyl)-pyridin-2-yl]-amine]?
IC50 [2]: > 10 µM; IC50 [3]: > 10 µM

Cc1cnc2[nH]cc(C(=O)c3ccc(Nc4ccc(C5CC5)nc4)nc3F)c2c1 [Compound P-3051, [6-(6-Cyclopropyl-pyridin-3-ylamino)-2-fluoro-pyridin-3-yl]-(5-methyl-1H-pyrrolo[2,3-b]pyridin-3-yl)-methanone] was tested. Which IC50 [2] did it give?
The IC50 was > 10 µM.

What about the IC50 [3] of the same molecule?
Its IC50 is > 10 µM.

Which results are given for O=C(c1ccc(Nc2ccc(C3CC3)nc2)nc1F)c1c[nH]c2ncccc12 [Compound P-3052, [6-(6-Cyclopropyl-pyridin-3-ylamino)-2-fluoro-pyridin-3-yl]-(1H-pyrrolo[2,3-b]pyridin-3-yl)-methanone]?
IC50 [2]: > 10 µM; IC50 [3]: 5 to 10 µM

With Fc1nc(Nc2ccc(C3CC3)nc2)ccc1Cc1c[nH]c2ncccc12 [Compound P-3053, (6-Cyclopropyl-pyridin-3-yl)-[6-fluoro-5-(1H-pyrrolo[2,3-b]pyridin-3-ylmethyl)-pyridin-2-yl]-amine] as the molecule, how does the IC50 [2] read?
The IC50 was > 10 µM.

What about the IC50 [3] of the same molecule?
Its IC50 is > 10 µM.

Which IC50 [1] does the source give for CCOc1ccc(Nc2ccc(Cc3c[nH]c4ncnc(C5CC5)c34)c(F)n2)cn1 [Compound P-4026, [5-(4-Cyclopropyl-7H-pyrrolo[2,3-d]pyrimidin-5-ylmethyl)-6-fluoro-pyridin-2-yl]-(6-ethoxy-pyridin-3-yl)-amine] here?
The IC50 was < 0.01 µM.

For CCOc1ccc(Nc2ccc(C(=O)c3c[nH]c4ncnc(C5CC5)c34)c(F)n2)cn1 [Compound P-4027, (4-Cyclopropyl-7H-pyrrolo[2,3-d]pyrimidin-5-yl)-[6-(6-ethoxy-pyridin-3-ylamino)-2-fluoro-pyridin-3-yl]-methanone], which IC50 [1] is on record?
Its IC50 is < 0.01 µM.

How did the IC50 [1] turn out when CCc1ccc(Nc2ccc(Cc3c[nH]c4ncnc(C5CC5)c34)c(F)n2)cn1 [Compound P-4028, [5-(4-Cyclopropyl-7H-pyrrolo[2,3-d]pyrimidin-5-ylmethyl)-6-fluoro-pyridin-2-yl]-(6-ethyl-pyridin-3-yl)-amine] was run?
The IC50 was < 0.01 µM.

And the IC50 [2]?
Its IC50 is > 10 µM.

What about the IC50 [3] of the same molecule?
The IC50 was 5 to 10 µM.

With CCc1ccc(Nc2ccc(C(=O)c3c[nH]c4ncnc(C5CC5)c34)c(F)n2)cn1 [Compound P-4029, (4-Cyclopropyl-7H-pyrrolo[2,3-d]pyrimidin-5-yl)-[6-(6-ethyl-pyridin-3-ylamino)-2-fluoro-pyridin-3-yl]-methanone] as the molecule, how does the IC50 [1] read?
Its IC50 is < 0.01 µM.

What about the IC50 [2] of the same molecule?
The IC50 was > 10 µM.

And the IC50 [3]?
Its IC50 is > 10 µM.

With Cc1ccc(Nc2ccc(Cc3c[nH]c4ncnc(C5CC5)c34)c(F)n2)cn1 [Compound P-4030, [5-(4-Cyclopropyl-7H-pyrrolo[2,3-d]pyrimidin-5-ylmethyl)-6-fluoro-pyridin-2-yl]-(6-methyl-pyridin-3-yl)-amine] as the molecule, how does the IC50 [1] read?
Its IC50 is < 0.1 µM.

And the IC50 [2]?
The IC50 was > 10 µM.

And the IC50 [3]?
The IC50 was > 10 µM.

How did the IC50 [1] turn out when Cc1ccc(Nc2ccc(C(=O)c3c[nH]c4ncnc(C5CC5)c34)c(F)n2)cn1 [Compound P-4031, (4-Cyclopropyl-7H-pyrrolo[2,3-d]pyrimidin-5-yl)-[2-fluoro-6-(6-methyl-pyridin-3-ylamino)-pyridin-3-yl]-methanone] was run?
Its IC50 is < 0.01 µM.

What about the IC50 [2] of the same molecule?
The IC50 was > 10 µM.

And the IC50 [3]?
The IC50 was > 10 µM.

With CCOc1ccc(Nc2ccc(C(=O)c3c[nH]c4ncnc(C)c34)c(F)n2)cn1 [Compound P-4032, [6-(6-Ethoxy-pyridin-3-ylamino)-2-fluoro-pyridin-3-yl]-(4-methyl-7H-pyrrolo[2,3-d]pyrimidin-5-yl)-methanone] as the molecule, how does the IC50 [1] read?
Its IC50 is < 0.1 µM.

CCn1cc(Nc2ccc(C(=O)c3c[nH]c4ncnc(C5CC5)c34)c(F)n2)cn1 [Compound P-4037, (4-Cyclopropyl-7H-pyrrolo[2,3-d]pyrimidin-5-yl)-[6-(1-ethyl-1H-pyrazol-4-ylamino)-2-fluoro-pyridin-3-yl]-methanone] was tested. Which IC50 [2] did it give?
The IC50 was > 10 µM.

What about the IC50 [3] of the same molecule?
The IC50 was 5 to 10 µM.

Cc1cncc(Nc2ccc(Cc3c[nH]c4ncnc(C5CC5)c34)c(F)n2)c1 [Compound P-4038, [5-(4-Cyclopropyl-7H-pyrrolo[2,3-d]pyrimidin-5-ylmethyl)-6-fluoro-pyridin-2-yl]-(5-methyl-pyridin-3-yl)-amine] was tested. Which IC50 [1] did it give?
The IC50 was < 1 µM.

Which IC50 [1] does the source give for Cc1cncc(Nc2ccc(C(=O)c3c[nH]c4ncnc(C5CC5)c34)c(F)n2)c1 [Compound P-4039, (4-Cyclopropyl-7H-pyrrolo[2,3-d]pyrimidin-5-yl)-[2-fluoro-6-(5-methyl-pyridin-3-ylamino)-pyridin-3-yl]-methanone] here?
The IC50 was < 0.1 µM.
